Usually IC50 stands for the midpoint of a concentration-inhibition curve. Low readings indicate higher potency, high ones lower potency.

Structures are written as SMILES.

This assay has as its target T1, SARM1 (50-724) (Homo sapiens, UniProt Q6SZW1).
T1 sequence (Q6SZW1 50-724): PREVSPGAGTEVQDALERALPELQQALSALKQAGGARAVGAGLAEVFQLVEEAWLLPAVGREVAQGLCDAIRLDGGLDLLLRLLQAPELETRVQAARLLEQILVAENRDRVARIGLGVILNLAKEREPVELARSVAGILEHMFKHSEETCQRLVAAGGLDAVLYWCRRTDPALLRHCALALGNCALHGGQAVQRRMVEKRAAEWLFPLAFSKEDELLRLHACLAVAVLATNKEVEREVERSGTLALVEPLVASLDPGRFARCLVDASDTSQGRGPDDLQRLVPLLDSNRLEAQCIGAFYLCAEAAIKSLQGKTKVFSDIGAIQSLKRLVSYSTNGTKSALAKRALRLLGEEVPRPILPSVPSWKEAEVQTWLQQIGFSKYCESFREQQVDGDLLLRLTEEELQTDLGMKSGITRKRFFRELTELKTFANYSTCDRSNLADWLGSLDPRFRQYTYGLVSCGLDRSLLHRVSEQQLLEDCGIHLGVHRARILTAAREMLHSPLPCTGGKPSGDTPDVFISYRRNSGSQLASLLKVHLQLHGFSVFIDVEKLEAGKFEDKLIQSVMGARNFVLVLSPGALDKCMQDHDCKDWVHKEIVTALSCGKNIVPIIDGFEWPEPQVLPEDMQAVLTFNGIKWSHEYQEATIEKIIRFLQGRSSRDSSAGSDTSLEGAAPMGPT
Briefly: biochemical.
Procedure: An enzymatic assay was performed in a 384-well plate using Dulbecco's phosphate-buffered saline (PBS) as the reaction buffer. […] The reaction was initiated by adding a mixture of 200 μM nicotinamide mononucleotide (NMN) as activator and 100 μM NAD^+ as substrate. After 1 h of incubation at room temperature, the reaction was terminated with 10 times volume of 70% acetonitrile, then centrifuged at 3800 rpm for 10 min.
`CC(Nc1ccc2cc[nH]c(=O)c2c1)c1nc(Cl)sc1Cl` (racemic) [Compound 190, 7-((1-(2,5-dichlorothiazol-4-yl)ethyl)amino)isoquinolin-1(2H)-one] had an IC50 of 100 to 500 nM.
`CC(C(N)=O)c1ccc(NS(=O)(=O)c2cccc(Cl)c2Cl)cc1` (racemic) [Compound 196, 2-(4-((2,3-dichlorophenyl)sulfonamido)phenyl)propanamide] came in with a half-inhibitory concentration (IC50) below 100 nM.
Consider `Cc1nc(C(C)Nc2ccc3cc[nH]c(=O)c3c2)sc1Cl` (racemic) [Compound 207, 7-((1-(5-chloro-4-methylthiazol-2-yl)ethyl)amino)isoquinolin-1(2H)-one], for which the IC50 was below 100 nM.
`Cc1nc(C(C)Nc2ccc3cc[nH]c(=O)c3c2)c(Cl)n1C` (racemic) [Compound 214, 7-((1-(5-chloro-1,2-dimethyl-1H-imidazol-4-yl)ethyl)amino)isoquinolin-1(2H)-one]: the IC50 lay within 100 to 500 nM.
In the case of `CC(Nc1ccc2c(c1)NC(=O)C2(C)C)c1c(Cl)ccc(F)c1Cl` (racemic) [Compound 215, 6-[1-(2,6-dichloro-3-fluoro-phenyl)ethylamino]-3,3-dimethyl-indolin-2-one] it was below 100 nM.
The result for `Cc1nc(C(C)Nc2ccc3nc[nH]c(=O)c3c2)sc1Cl` (racemic) [Compound 216, 6-((1-(5-chloro-4-methylthiazol-2-yl)ethyl)amino)quinazolin-4(3H)-one] reads below 100 nM.
The compound `CC(Nc1ccc2c(c1)NC(=O)CCC2)c1nc(Cl)c(Cl)s1` (racemic) [Compound 229, 8-[1-(4,5-dichlorothiazol-2-yl)ethylamino]-1,3,4,5-tetrahydro-1-benzazepin-2-one] displayed a concentration for half-maximal inhibition (IC50) of 100 to 500 nM.
The result for `CC(Nc1ccc2c(c1)NC(=O)CC2)c1nc(Cl)c(Cl)s1` (racemic) [Compound 230, 7-[1-(4,5-dichlorothiazol-2-yl)ethylamino]-3,4-dihydro-1H-quinolin-2-one] reads 100 to 500 nM.
In the case of `CC(Nc1ccc2ccc(=O)[nH]c2c1)c1nc(Cl)c(Cl)s1` (racemic) [Compound 231, 7-[1-(4,5-dichlorothiazol-2-yl)ethylamino]-1H-quinolin-2-one] it was below 100 nM.
With `CC(Nc1ccc2cc[nH]c(=O)c2c1)c1nn2c(c1Cl)CCCC2` (racemic) [Compound 232, 7-((1-(3-chloro-4,5,6,7-tetrahydropyrazolo[1,5-a]pyridin-2-yl)ethyl)amino)isoquinolin-1(2H)-one], the IC50 lay within 100 to 500 nM.
`CC(Nc1ccc2cc[nH]c(=O)c2c1)c1nc(Cl)c(Cl)n1C` (racemic) [Compound 233, 7-((1-(4,5-dichloro-1-methyl-1H-imidazol-2-yl)ethyl)amino)isoquinolin-1(2H)-one]: the IC50 lay within 100 to 500 nM.
`CC(Nc1ccc2cc[nH]c(=O)c2c1)c1nc2c(s1)CCCC2` (racemic) [Compound 236, 7-((1-(4,5,6,7-tetrahydrobenzo[d]thiazol-2-yl)ethyl)amino)isoquinolin-1(2H)-one] had a concentration for half-maximal inhibition (IC50) of 100 to 500 nM.
Consider `CC(Nc1ccc2c(c1)c(C(=O)N(C)C)nn2C)c1c(Cl)ccc(F)c1Cl` (racemic) [Compound 245, 5-((1-(2,6-dichloro-3-fluorophenyl)ethyl)amino)-N,N1-trimethyl-1H-indazole-3-carboxamide], for which the IC50 is 100 to 500 nM.
In the case of `CNC(=O)c1nn(C)c2ccc(NC(C)c3c(Cl)ccc(F)c3Cl)cc12` (racemic) [Compound 246, 5-((1-(2,6-dichloro-3-fluorophenyl)ethyl)amino)-N,1-dimethyl-1H-indazole-3-carboxamide] it was below 100 nM; in that of `CCn1nc(C(C)Nc2ccc3cc[nH]c(=O)c3c2)c(Cl)c1C` (racemic) [Compound 247, 7-((1-(4-chloro-1-ethyl-5-methyl-1H-pyrazol-3-yl)ethyl)amino)isoquinolin-1(2H)-one], below 100 nM; in that of `COc1nccc2ccc(NC(C)c3c(Cl)nn(C)c3Cl)cc12` (racemic) [Compound 248, N-(1-(3,5-dichloro-1-methyl-1H-pyrazol-4-yl)ethyl)-1-methoxyisoquinolin-7-amine], 100 to 500 nM.
Turning to `CC(Nc1ccc2cn[nH]c2c1)c1nc(Cl)c(Cl)s1` (racemic) [Compound 249, N-(1-(4,5-dichlorothiazol-2-yl)ethyl)-1H-indazol-6-amine], the IC50 was below 100 nM.
The result for `O=c1[nH]ccc2ccc(NC(CCO)c3cccc(Cl)c3Cl)cc12` (racemic) [Compound 252, 7-((1-(2,3-dichlorophenyl)-3-hydroxypropyl)amino)isoquinolin-1(2H)-one] reads below 100 nM; that for `CC(C)(O)C(Nc1ccc2cc[nH]c(=O)c2c1)c1cccc(Cl)c1Cl` (racemic) [Compound 253, 7-((1-(2,3-dichlorophenyl)-2-hydroxy-2-methylpropyl)amino)isoquinolin-1(2H)-one], below 100 nM.
The result for `CC(Nc1ccc2cc[nH]c(=O)c2c1)c1nn(C)c(Cl)c1Cl` (racemic) [Compound 256, 7-((1-(4,5-dichloro-1-methyl-1H-pyrazol-3-yl)ethyl)amino)isoquinolin-1(2H)-one] reads below 100 nM.
The result for `Cc1c(Cl)c(C(C)Nc2ccc3cc[nH]c(=O)c3c2)nn1CC(F)(F)F` (racemic) [Compound 257, 7-((1-(4-chloro-5-methyl-1-(2,2,2-trifluoroethyl)-1H-pyrazol-3-yl)ethyl)amino)isoquinolin-1(2H)-one] reads below 100 nM; that for `CC(Nc1ccc2c(c1)NC(=O)OC2(C)C)c1nc(Cl)c(Cl)s1` (racemic) [Compound 258, 7-((1-(4,5-dichlorothiazol-2-yl)ethyl)amino)-4,4-dimethyl-1,4-dihydro-2H-benzo[d][1,3]oxazin-2-one], below 100 nM.
Compound `CC(Nc1ccc2nc[nH]c(=O)c2n1)c1c(Cl)ccc(F)c1Cl` (racemic) [Compound 259, 6-((1-(2,6-dichloro-3-fluorophenyl)ethyl)amino)pyrido[3,2-d]pyrimidin-4(3H)-one] displayed a concentration for half-maximal inhibition (IC50) below 100 nM.
In the case of `Cc1snc(C(C)Nc2ccc3nc[nH]c(=O)c3c2)c1Cl` (racemic) [Compound 260, 6-((1-(4-chloro-5-methylisothiazol-3-yl)ethyl)amino)quinazolin-4(3H)-one] it was 100 to 500 nM; in that of `Cc1n[nH]c2cc(NC(C)c3nc(Cl)c(Cl)s3)ccc12` (racemic) [Compound 261, N-(1-(4,5-dichlorothiazol-2-yl)ethyl)-3-methyl-1H-indazol-6-amine], below 100 nM; in that of `COc1nccc2ccc(NC(C)c3nc4c(s3)CN(C(=O)OC(C)(C)C)CC4)cc12` (racemic) [Compound 262, tert-butyl 2-(1-((1-methoxyisoquinolin-7-yl)amino)ethyl)-6,7-dihydrothiazolo[5,4-c]pyridine-5(4H)-carboxylate], 100 to 500 nM.
The result for `CC(Nc1ccc2c(c1)nc(C(N)=O)n2C)c1c(Cl)ccc(F)c1Cl` (racemic) [Compound 263, 5-((1-(2,6-dichloro-3-fluorophenyl)ethyl)amino)-1-methyl-1H-benzo[d]imidazole-2-carboxamide] reads below 100 nM.
Turning to `Cc1n[nH]c(=O)c2cc(NC(C)c3nccc(Cl)c3Cl)ccc12` (racemic) [Compound 266, 7-((1-(3,4-dichloropyridin-2-yl)ethyl)amino)-4-methylphthalazin-1(2H)-one], the IC50 was below 100 nM.
Consider `CC(Nc1ccc2c(c1)NC(=O)C2(C)C)c1cncc(Cl)c1Cl` (racemic) [Compound 267, 6-((1-(4,5-dichloropyridin-3-yl)ethyl)amino)-3,3-dimethylindolin-2-one], for which the IC50 was below 100 nM.
For the compound `CC1Cc2ccc(NS(=O)(=O)c3cccc(Cl)c3Cl)cc2NC1=O` (racemic) [Compound 269, 2,3-dichloro-N-(3-methyl-2-oxo-3,4-dihydro-1H-quinolin-7-yl)benzenesulfonamide], the IC50 is below 100 nM.
In the case of `CC(Nc1cc(F)c2nc[nH]c(=O)c2c1)c1nc(Cl)c(Cl)s1` (racemic) [Compound 271, 6-((1-(4,5-dichlorothiazol-2-yl)ethyl)amino)-8-fluoroquinazolin-4(3H)-one] it was below 100 nM; in that of `CCC(Nc1ccc2c(OC)n[nH]c(=O)c2c1)c1nc(Cl)c(Cl)s1` (racemic) [Compound 272, 7-((1-(4,5-dichlorothiazol-2-yl)propyl)amino)-4-methoxyphthalazin-1(2H)-one], below 100 nM; in that of `CC1(C)CC(O)c2cc(NS(=O)(=O)c3cccc(Cl)c3Cl)ccc21` (racemic) [Compound 274, 2,3-dichloro-N-(3-hydroxy-1,1-dimethyl-2,3-dihydro-1H-inden-5-yl)benzenesulfonamide], below 100 nM.
Turning to `Cc1n[nH]c(=O)c2cc(NC(C)c3cncc(Cl)c3Cl)ccc12` (racemic) [Compound 275, 7-((1-(4,5-dichloropyridin-3-yl)ethyl)amino)-4-methylphthalazin-1(2H)-one], the IC50 was below 100 nM.
Compound `CC(Nc1ccc2c(c1)N(C(N)=O)CC2(C)C)c1nc(Cl)c(Cl)s1` (racemic) [Compound 276, 6-((1-(4,5-dichlorothiazol-2-yl)ethyl)amino)-3,3-dimethylindoline-1-carboxamide] showed an IC50 below 100 nM.
